Measurements as given in ChEMBL document CHEMBL1201862, “PubChem BioAssay data set” (2004).
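Growth conditions: 96-well plates. Treatment: test compound, 48 hours, 5 concentrations. Analysis: linear interpolation between bracketing concentrations; unreached endpoints set to highest concentration. The concentration for 50% growth inhibition is given as GI50.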 Calls of active or inactive are those of the source. No stated cut-off is given here; in the data, active = GI50 up to about 1.1 µM and inactive = higher.

Tests used:
Experiment in all cases: NCI-60 cell line screen, 48 h
[1] = system: DLD-1
[2] = system: DMS-114
[3] = system: DMS-273
[4] = system: HOP-18
[5] = system: LXFL 529
[6] = system: SNB-78
[7] = system: KM-20L2
[8] = system: XF498
[9] = system: RXF 631

Compound: N#CC(NNC(=O)Cc1ccccc1)c1cccc(O)c1 (stereo not given)
- GI50 [1]: > 100 µM (inactive)
- GI50 [2]: > 100 µM (inactive)
- GI50 [3]: > 100 µM (inactive)
- GI50 [4]: > 100 µM (inactive)
- GI50 [5]: > 100 µM (inactive)
- GI50 [6]: > 100 µM (inactive)

Compound: COC(=O)/C(Cl)=C1/CC1COCc1ccccc1 (stereo not given)
- GI50 [1]: 20.4 µM (inactive)
- GI50 [2]: 28.8 µM (inactive)
- GI50 [3]: 20.7 µM (inactive)
- GI50 [7]: 41.4 µM (inactive)
- GI50 [5]: 17.1 µM (inactive)
- GI50 [6]: 45.9 µM (inactive)
- GI50 [8]: 26.4 µM (inactive)

Compound: CCC12CCCC(=O)N1C(CO)C(c1ccccc1)O2 (stereo not given)
- GI50 [1]: > 100 µM (inactive)
- GI50 [2]: 38 µM (inactive)
- GI50 [3]: > 100 µM (inactive)
- GI50 [4]: > 100 µM (inactive)
- GI50 [7]: > 100 µM (inactive)
- GI50 [6]: > 100 µM (inactive)
- GI50 [8]: > 100 µM (inactive)

Compound: N#CC(N)(C(=O)CCC(=O)Nc1cccc(Cl)c1)c1ccc(Cl)cc1 (stereo not given)
- GI50 [1]: > 100 µM (inactive)
- GI50 [2]: > 100 µM (inactive)
- GI50 [3]: > 100 µM (inactive)
- GI50 [4]: > 100 µM (inactive)
- GI50 [7]: > 100 µM (inactive)
- GI50 [5]: > 100 µM (inactive)
- GI50 [6]: > 100 µM (inactive)
- GI50 [8]: > 100 µM (inactive)

Compound: COc1cccc2c1C(=O)c1c(O)c3c(c(O)c1C2=O)C[C@@](O)(C(=O)CO)C[C@@H]3OC1CC(N2CCOCC2C#N)C(O)C(C)O1 (stereo not given in full)
- GI50 [1]: 2.26e-05 µM (active)
- GI50 [3]: 1.93e-05 µM (active)
- GI50 [4]: 0.0025 µM (active)
- GI50 [7]: 0.0025 µM (active)
- GI50 [5]: 0.001 µM (active)
- GI50 [9]: 8.24e-05 µM (active)
- GI50 [6]: 0.0025 µM (active)

Compound: C[C@]12CCC3[C@@H](CCC45OC4C(=O)CC[C@]35C)C1Cc1cnn(-c3ccc(F)cc3)c1N2 (stereo not given in full)
- GI50 [2]: 19.4 µM (inactive)
- GI50 [3]: 18.8 µM (inactive)
- GI50 [4]: 37 µM (inactive)
- GI50 [7]: 22.6 µM (inactive)
- GI50 [5]: 32.8 µM (inactive)
- GI50 [6]: 25.6 µM (inactive)
- GI50 [8]: 31.8 µM (inactive)

Compound: Clc1ccc(C2=NN(c3ccccc3)C3c4cc(Br)ccc4OCC23)cc1 (stereo not given)
- GI50 [1]: > 100 µM (inactive)
- GI50 [2]: 86.1 µM (inactive)
- GI50 [3]: > 100 µM (inactive)
- GI50 [4]: > 100 µM (inactive)
- GI50 [7]: > 100 µM (inactive)
- GI50 [5]: 72.1 µM (inactive)
- GI50 [9]: > 100 µM (inactive)
- GI50 [6]: > 100 µM (inactive)
- GI50 [8]: 66.2 µM (inactive)

Compound: COc1c(C(C)C)cc2c3c1OC(=O)[C@@]31CCCC(C)(C)C1CC2 (stereo not given in full)
- GI50 [1]: 69.8 µM (inactive)
- GI50 [3]: 23.4 µM (inactive)
- GI50 [7]: 30.4 µM (inactive)
- GI50 [5]: 16.6 µM (inactive)
- GI50 [6]: 23.3 µM (inactive)

Compound: OCC1OC(n2cnc3c2NC=NC[C@H]3O)CC1O (stereo not given in full)
- GI50 [1]: 494 µM (inactive)
- GI50 [2]: 426 µM (inactive)
- GI50 [3]: 489 µM (inactive)
- GI50 [7]: > 500 µM (inactive)
- GI50 [5]: > 500 µM (inactive)
- GI50 [6]: 483 µM (inactive)
- GI50 [8]: 442 µM (inactive)

Compound: O=C(Nc1ccc(Cl)cc1Cl)C(=O)C(C(=O)c1ccncc1)C1OC(=O)c2ccccc21 (stereo not given)
- GI50 [1]: > 100 µM (inactive)
- GI50 [2]: > 100 µM (inactive)
- GI50 [4]: > 100 µM (inactive)
- GI50 [7]: > 100 µM (inactive)
- GI50 [5]: > 100 µM (inactive)
- GI50 [9]: > 100 µM (inactive)
- GI50 [6]: > 100 µM (inactive)
- GI50 [8]: > 100 µM (inactive)

Compound: COc1ccc(S(=O)(=O)NC(C)C(=O)O)cc1 (stereo not given)
- GI50 [1]: > 100 µM (inactive)
- GI50 [3]: > 100 µM (inactive)
- GI50 [4]: > 100 µM (inactive)
- GI50 [7]: > 100 µM (inactive)
- GI50 [5]: > 100 µM (inactive)
- GI50 [8]: 21.9 µM (inactive)

Compound: O=S1(=O)NN=C(NCc2ccc(Cl)c(Cl)c2)c2ccccc21
- GI50 [1]: 56.9 µM (inactive)
- GI50 [2]: > 100 µM (inactive)
- GI50 [3]: > 100 µM (inactive)
- GI50 [4]: > 100 µM (inactive)
- GI50 [7]: > 100 µM (inactive)
- GI50 [5]: 42.2 µM (inactive)
- GI50 [6]: 97.5 µM (inactive)

Compound: CCCN(CCC)CCc1cc(C(C)=O)n(S(=O)(=O)c2ccc(C)cc2)c1
- GI50 [1]: > 100 µM (inactive)
- GI50 [2]: > 100 µM (inactive)
- GI50 [3]: > 100 µM (inactive)
- GI50 [4]: > 100 µM (inactive)
- GI50 [5]: > 100 µM (inactive)
- GI50 [6]: > 100 µM (inactive)

Compound: COc1ccccc1/N=C(\N)N/N=C/c1c[nH]c2ccccc12
- GI50 [1]: 13.8 µM (inactive)
- GI50 [2]: 3.39 µM (inactive)
- GI50 [4]: 18.6 µM (inactive)
- GI50 [7]: 13.3 µM (inactive)
- GI50 [5]: 2.23 µM (inactive)
- GI50 [6]: 6.85 µM (inactive)
- GI50 [8]: 4.42 µM (inactive)

Compound: CCCCCCC(=O)OC[n+]1ccc2c(C)c3[nH]c4ccc(OC)cc4c3c(C)c2c1
- GI50 [1]: 0.092 µM (active)
- GI50 [2]: 0.522 µM (active)
- GI50 [3]: 0.029 µM (active)
- GI50 [7]: 2.42 µM (inactive)
- GI50 [5]: 0.133 µM (active)
- GI50 [9]: 0.455 µM (active)
- GI50 [6]: 1.06 µM (active)

Compound: CC(C)(C)c1cc2ccc(C(N)=O)cc2c(=O)[nH]1
- GI50 [1]: > 100 µM (inactive)
- GI50 [2]: > 100 µM (inactive)
- GI50 [3]: > 100 µM (inactive)
- GI50 [4]: > 100 µM (inactive)
- GI50 [7]: > 100 µM (inactive)
- GI50 [5]: > 100 µM (inactive)
- GI50 [9]: > 100 µM (inactive)
- GI50 [6]: > 100 µM (inactive)

Compound: COC(=O)C(C(=O)C(=O)Nc1cccc(OC)c1)c1cnc2ccccc2n1 (stereo not given)
- GI50 [1]: > 100 µM (inactive)
- GI50 [2]: > 100 µM (inactive)
- GI50 [3]: > 100 µM (inactive)
- GI50 [4]: > 100 µM (inactive)
- GI50 [7]: > 100 µM (inactive)
- GI50 [5]: > 100 µM (inactive)
- GI50 [9]: > 100 µM (inactive)
- GI50 [6]: > 100 µM (inactive)
- GI50 [8]: > 100 µM (inactive)

Compound: O=C1C(Cl)C(c2ccc([N+](=O)[O-])cc2)N1n1cnc2ccccc2c1=O (stereo not given)
- GI50 [1]: 53.1 µM (inactive)
- GI50 [2]: 20.2 µM (inactive)
- GI50 [3]: 34.5 µM (inactive)
- GI50 [4]: 40.6 µM (inactive)
- GI50 [7]: > 100 µM (inactive)
- GI50 [5]: 22.7 µM (inactive)
- GI50 [6]: 24.1 µM (inactive)
- GI50 [8]: 64.9 µM (inactive)

Compound: CCCCCCCCCCCCN(O)C(=O)c1ccccc1
- GI50 [1]: 26.4 µM (inactive)
- GI50 [4]: 62.1 µM (inactive)
- GI50 [7]: 36.2 µM (inactive)
- GI50 [5]: 30.5 µM (inactive)
- GI50 [8]: 21.6 µM (inactive)

Compound: Nc1ccc(C(=O)NN2C(=O)C(Cl)C2c2cccc([N+](=O)[O-])c2)cc1 (stereo not given)
- GI50 [1]: 17.9 µM (inactive)
- GI50 [2]: 18.7 µM (inactive)
- GI50 [3]: 16 µM (inactive)
- GI50 [7]: 25.3 µM (inactive)
- GI50 [5]: 20 µM (inactive)
- GI50 [6]: 63.2 µM (inactive)
- GI50 [8]: 13.2 µM (inactive)

Compound: CCOc1ccc2c(c1)[n+]([O-])c(-c1ccccc1)c(N)[n+]2[O-]
- GI50 [1]: > 100 µM (inactive)
- GI50 [2]: 34.9 µM (inactive)
- GI50 [3]: 77.1 µM (inactive)
- GI50 [4]: 53.6 µM (inactive)
- GI50 [7]: 59 µM (inactive)
- GI50 [5]: 46.6 µM (inactive)
- GI50 [8]: > 100 µM (inactive)

Compound: CC(=O)Nc1ccc(C2CC(c3ccc([N+](=O)[O-])cc3)=Nc3ccccc3[S+]2[O-])cc1 (stereo not given)
- GI50 [1]: 15.9 µM (inactive)
- GI50 [2]: 21.2 µM (inactive)
- GI50 [3]: 13.6 µM (inactive)
- GI50 [4]: 27.2 µM (inactive)
- GI50 [7]: 21.6 µM (inactive)
- GI50 [5]: 16.7 µM (inactive)
- GI50 [9]: > 10 µM (inactive)
- GI50 [8]: 24.2 µM (inactive)

Compound: Cc1c2cc[n+]([O-])cc2c(C)c2c1[nH]c1ccccc12
- GI50 [1]: 5.42 µM (inactive)
- GI50 [2]: 11.2 µM (inactive)
- GI50 [3]: 3.82 µM (inactive)
- GI50 [4]: 45 µM (inactive)
- GI50 [7]: 4.06 µM (inactive)
- GI50 [5]: 4.65 µM (inactive)
- GI50 [9]: 0.879 µM (active)
- GI50 [6]: 7.71 µM (inactive)
- GI50 [8]: 9.98 µM (inactive)
